Experimental data from patent US6352958B1, “Cycloimido-substituted benzofused heterocyclic herbicides” (FMC Corporation, priority 1997, dated 2002).

Assays:
Format in all cases: in vivo
[1] = test system: green foxtail (Setaria viridis); test: Preemergence herbicidal activity, green foxtail; conditions: Rate of Application 0.3 Kg/Ha, examined after 12-17 days
[2] = test system: blackgrass (Aloepecurus myosuroides); test: Postemergence herbicidal activity, blackgrass; conditions: rate of application 0.3 Kg/Ha, rated after 12-17 days
[3] = test system: morningglory (Ipomea lacunosa or Ipomea hederacea); test: Postemergence herbicidal activity, morningglory; conditions: rate of application 0.3 Kg/Ha, rated after 12-17 days
[4] = test system: velvetleaf (Abutilon theophrasti); test: Postemergence herbicidal activity, velvetleaf; conditions: rate of application 0.3 Kg/Ha, rated after 12-17 days
[5] = test system: soybean (Glycine max var. Winchester); test: Postemergence herbicidal activity, soybean; conditions: rate of application 0.3 Kg/Ha, rated after 12-17 days
[6] = test system: velvetleaf (Abutilon theophrasti); test: Preemergence herbicidal activity, velvetleaf; conditions: Rate of Application 0.3 Kg/Ha, examined after 12-17 days
[7] = test system: Johnsongrass (Sorghum halepense); test: Preemergence herbicidal activity, johnsongrass; conditions: Rate of Application 0.3 Kg/Ha, examined after 12-17 days
[8] = test system: common chickweed (Stellaria media); test: Preemergence herbicidal activity, chickweed; conditions: Rate of Application 0.3 Kg/Ha, examined after 12-17 days
[9] = test system: blackgrass (Aloepecurus myosuroides); test: Preemergence herbicidal activity, blackgrass; conditions: Rate of Application 0.3 Kg/Ha, examined after 12-17 days
[10] = test system: field corn (Zea mays var. Pioneer 3732); test: Postemergence herbicidal activity, corn; conditions: rate of application 0.3 Kg/Ha, rated after 12-17 days
[11] = test system: morningglory (Ipomea lacunosa or Ipomea hederacea); test: Preemergence herbicidal activity, morningglory; conditions: Rate of Application 0.3 Kg/Ha, examined after 12-17 days
[12] = test system: field corn (Zea mays var. Pioneer 3732); test: Preemergence herbicidal activity, corn; conditions: Rate of Application 0.3 Kg/Ha, examined after 12-17 days
[13] = test system: wheat (Triticum aestivum var. Lew); test: Preemergence herbicidal activity, wheat; conditions: Rate of Application 0.3 Kg/Ha, examined after 12-17 days
[14] = test system: common cocklebur (Xanthium strumarium L.); test: Preemergence herbicidal activity, cocklebur; conditions: Rate of Application 0.3 Kg/Ha, examined after 12-17 days
[15] = test system: green foxtail (Setaria viridis); test: Postemergence herbicidal activity, green foxtail; conditions: rate of application 0.3 Kg/Ha, rated after 12-17 days
[16] = test system: Johnsongrass (Sorghum halepense); test: Postemergence herbicidal activity, johnsongrass; conditions: rate of application 0.3 Kg/Ha, rated after 12-17 days
[17] = test system: wheat (Triticum aestivum var. Lew); test: Postemergence herbicidal activity, wheat; conditions: rate of application 0.3 Kg/Ha, rated after 12-17 days
[18] = test system: common chickweed (Stellaria media); test: Postemergence herbicidal activity, chickweed; conditions: rate of application 0.3 Kg/Ha, rated after 12-17 days
[19] = test system: soybean (Glycine max var. Winchester); test: Preemergence herbicidal activity, soybean; conditions: Rate of Application 0.3 Kg/Ha, examined after 12-17 days
[20] = test system: common cocklebur (Xanthium strumarium L.); test: Postemergence herbicidal activity, cocklebur; conditions: rate of application 0.3 Kg/Ha, rated after 12-17 days

| SMILES | PREEMERGENCE HERBICIDAL ACTIVITY (% CONTROL) SETVI [1] [%] | Postemergence herbicidal activity (% control) ALOMY [2] [%] | Postemergence herbicidal activity (% control) IPOSS [3] [%] | Postemergence herbicidal activity (% control) ABUTH [4] [%] | Postemergence herbicidal activity (% control) SOY [5] [%] | PREEMERGENCE HERBICIDAL ACTIVITY (% CONTROL) ABUTH [6] [%] | PREEMERGENCE HERBICIDAL ACTIVITY (% CONTROL) SORHA [7] [%] | PREEMERGENCE HERBICIDAL ACTIVITY (% CONTROL) STEME [8] [%] | PREEMERGENCE HERBICIDAL ACTIVITY (% CONTROL) ALOMY [9] [%] | Postemergence herbicidal activity (% control) CRN [10] [%] | PREEMERGENCE HERBICIDAL ACTIVITY (% CONTROL) IPOSS [11] [%] | PREEMERGENCE HERBICIDAL ACTIVITY (% CONTROL) CRN [12] [%] | PREEMERGENCE HERBICIDAL ACTIVITY (% CONTROL) WHT [13] [%] | PREEMERGENCE HERBICIDAL ACTIVITY (% CONTROL) XANPE [14] [%] | Postemergence herbicidal activity (% control) SETVI [15] [%] | Postemergence herbicidal activity (% control) SORHA [16] [%] | Postemergence herbicidal activity (% control) WHT [17] [%] | Postemergence herbicidal activity (% control) STEME [18] [%] | PREEMERGENCE HERBICIDAL ACTIVITY (% CONTROL) SOY [19] [%] | Postemergence herbicidal activity (% control) XANPE [20] [%] |
| --- | --- | --- | --- | --- | --- | --- | --- | --- | --- | --- | --- | --- | --- | --- | --- | --- | --- | --- | --- | --- |
| CC(C)Oc1nc2c(-n3c(=O)cc(C(F)(F)F)n(C)c3=O)c(F)cc(Br)c2o1 [Compound 107] | 100 | 90 | 100 | 100 | 95 | 100 | 100 | 100 | 75 | 100 | 100 | 90 | 60 | 40 | 100 | 100 | 40 | 100 | 80 | – |
| CC(C)c1cc2c(Cl)cc(F)c(-n3c(=O)cc(C(F)(F)F)n(C)c3=O)c2o1 [Compound 224] | 100 | 90 | 100 | 100 | 95 | 100 | 100 | 100 | 80 | 100 | 100 | 90 | 80 | 95 | 100 | – | 70 | 100 | 100 | 100 |
| Cn1c(C(F)(F)F)cc(=O)n(-c2c(F)cc(Cl)c3cc(C(C)(C)C)oc23)c1=O [Compound 227] | 100 | 100 | 100 | 100 | 95 | 100 | 100 | 100 | 95 | 90 | 100 | 90 | 80 | – | 100 | 100 | 60 | 100 | 100 | 100 |
| C=C(C)c1cc2c(Cl)cc(F)c(-n3c(=O)cc(C(F)(F)F)n(C)c3=O)c2o1 [Compound 231] | 100 | 100 | 100 | 100 | 100 | 100 | 100 | 100 | 90 | 100 | 100 | 100 | 80 | 100 | 100 | 100 | 70 | 100 | 100 | – |
| CC(OC(C)(C)C)c1cc2c(Cl)cc(F)c(-n3c(=O)cc(C(F)(F)F)n(C)c3=O)c2o1 (centres unmarked) [Compound 244] | 100 | 75 | 100 | 100 | 95 | 100 | 100 | 70 | 70 | 90 | 90 | 100 | 80 | 100 | 100 | – | 60 | 100 | 95 | 100 |
| CC(OC(=O)NCc1ccccc1)c1cc2c(Cl)cc(F)c(-n3c(=O)cc(C(F)(F)F)n(C)c3=O)c2o1 (centres unmarked) [Compound 250] | 100 | 40 | 100 | 100 | 95 | 100 | 70 | – | 60 | 80 | 100 | 50 | 40 | 100 | 100 | 100 | 50 | 80 | 80 | 100 |
| Cn1c(C(F)(F)F)cc(=O)n(-c2c(F)cc(Cl)c3cc(CCCC#N)oc23)c1=O [Compound 256] | 100 | 80 | 100 | 100 | 100 | 100 | 90 | 100 | 70 | 90 | 100 | 95 | 80 | – | 100 | 100 | 80 | 100 | 100 | 100 |
| Cn1c(C(F)(F)F)cc(=O)n(-c2c(F)cc(Cl)c3[nH]cnc23)c1=O [Compound 362] | 100 | 100 | 100 | 100 | 100 | 100 | 100 | 100 | 100 | 100 | 100 | 100 | 100 | 100 | 100 | 100 | 100 | 100 | 100 | – |
